Our source for the IC50 values is patent US8138194B2, “Fused bicyclic pyrimidine compounds as aurora kinase inhibitors” (National Health Research Institutes, priority 2008, dated 2012).

SMILES strings stand for the structures. pIC50: −log10 of the molar value. Several values for one entry are separate records, joined by “and”; a condition that tells them apart may be missing. Identical values can stand only once. Like-named read-outs stand apart in the source and are kept apart here.

The subject of test [1] is HCT-116 cells. Briefly: HCT-116 cell viability MTS assay. The class given is cell-based. To be noted: Homo sapiens. The procedure: HCT-116 cell viability was examined by the MTS assay (Promega, Madison, Wis., USA). 2000 HCT-116 cells in 100 μL McCoy's 5a medium were seeded in each well of a 96-well plate. After 96-h incubation with a test compound, the cells were incubated with 20 μL of a MTS/PMS mixture (MTS/PMS ratio: 20: 1) for 2 h at 37° C. in a humidified incubator with 5% CO2 to allow viable cells to convert the tetrazolium salt (MTS) into formazan. The amount/concentration of formazan, which indicates the number of live cells, was determined by measuring the absorbance at 490 nm using a PerkinElmer Victor2 plate reader (PerkinElmer, Shelton, Cont., USA).

Test [2] addresses T1, GST-tAurora A (123-401aa) fusion protein (Homo sapiens, UniProt O14965).
T1 construct: GST-tAurora A (123-401aa) fusion protein; made in house; host or cells: Sf9 insect cells (baculovirus, pBacPAK8)
T1 sequence (O14965 123-401): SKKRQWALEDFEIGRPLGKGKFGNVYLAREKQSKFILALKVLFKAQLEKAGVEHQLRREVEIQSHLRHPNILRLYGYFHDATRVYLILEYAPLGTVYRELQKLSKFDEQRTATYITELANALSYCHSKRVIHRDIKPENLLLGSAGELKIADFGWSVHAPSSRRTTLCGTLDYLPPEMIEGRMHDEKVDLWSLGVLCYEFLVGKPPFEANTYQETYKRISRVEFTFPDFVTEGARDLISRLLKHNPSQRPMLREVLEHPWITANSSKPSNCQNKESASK
Nature of the test: Aurora Kinase A luminescent kinase assay. The class given is biochemical. The conditions noted are these: IC50 (concentration of a test compound at which activity of 50% of Aurora A is inhibited). The procedure: The Aurora A catalytic domain with an N-terminal GST tag was constructed in pBacPAK8 plasmid and expressed in sf9 cells. […] To concentrate GST-tAurora A, buffer was replaced with Tris buffer (100 mM Tris (pH 7.5), 300 mM NaCl, 1 mM EDTA, 4 mM DTT) using Amicon ultra-15 (MWCO:30K, Millipore) to 2.4 mg/ml. After the addition of equal volume of glycerol and 0.04% Triton X-100, the proteins were stored aliquoted at −80° C.
Briefly, a test compound, enzyme, substrate-tetra(LRRWSLG), DTT and ATP were dissolved in Aur buffer (50 mM Tris-HCl pH 7.4, 10 mM NaCl, 10 mM MgCl2, and 100 μg/ml BSA) individually before the assay. […] 5 μM ATP (5 μl), 1 mM DTT (5 μl) and 0.1 mM tetra(LRRWSLG) peptide substrate (5 μl) were added into the reactions of test compounds and GST-tAurora A. The reactions were incubated at 37° C. for 90 min. 50 μl of Kinase-Glo Plus Reagent (V3771, Promega) was added into the reactions, followed by the incubation at 25° C. for 20 min.

[3] abbreviates: read-out: IC50 (concentration of a test compound which causes 50% of the cell death), HCT-116, 96-h incubation, MTS.

Turning to `COc1ccc(-c2cc3c(NCCc4ccc(NC(=O)Nc5ccccc5)cc4)ncnc3o2)cc1` [Compound 204], the pIC50 is 6.05 to 7.00 in test [1] (setting [3]); > 6.00 and 6.40 to 7.35 in test [2].

On to `O=C(Nc1ccccc1)Nc1ccc(CCNc2ncnc3oc(-c4ccc(OCCN5CCC(O)CC5)cc4)cc23)cc1` [Compound 239], for which the pIC50 in test [1] (setting [3]) was 6.05 to 7.00; in test [2], > 6.00 and 6.40 to 7.35. `CN(C)Cc1ccc(NC(=O)Nc2ccc(CCNc3ncnc4oc(-c5ccccc5)c(Cl)c34)cc2)cc1` [Compound 253]: the pIC50 is 6.05 to 7.00 in test [1] (setting [3]); 6.40 to 7.35 and > 6.00 in test [2].

On to `O=C(Nc1ccc(CCNc2ncnc3oc(-c4ccccc4)c(-c4ccccc4)c23)cc1)Nc1ccc(F)cc1F` [Compound 92], for which the pIC50 was 6.05 to 7.00 in test [1] (setting [3]) and more than 6.00 in test [2].

Turning to `CN(C)Cc1ccc(NC(=O)Nc2ccc(CCNc3ncnc4oc(-c5ccccc5)c(-c5ccccc5)c34)cc2)cc1` [Compound 115], the results for the pIC50 in test [1] (setting [3]) and in test [2] were 6.05 to 7.00 and more than 6.00, respectively.

`O=C(Nc1ccccc1)Nc1ccc(CCNc2ncnc3oc(-c4ccccc4)c(CO)c23)cc1` [Compound 225]: the pIC50 is 6.05 to 7.00 in test [1] (setting [3]); > 6.00 and 6.40 to 7.35 in test [2]. Regarding `O=C(Nc1ccc(CCNc2ncnc3oc(-c4ccccc4)c(Cl)c23)cc1)Nc1cccnc1` [Compound 232], the pIC50 was 6.05 to 7.00 in test [1] (setting [3]); 6.40 to 7.35 and > 6.00 in test [2]. With `O=C(Nc1ccc(Cl)cc1)Nc1ccc(CCNc2ncnc3oc(-c4ccccc4)c(-c4ccccc4)c23)cc1` [Compound 93], the pIC50 in test [1] (setting [3]) is 6.05 to 7.00; in test [2], more than 6.00. On to `COc1ccc(-c2cc3c(NCCc4ccc(NC(=O)Nc5ccccc5CN(C)C)cc4)ncnc3o2)cc1` [Compound 245], for which the figures for the pIC50 in test [1] (setting [3]) and in test [2] were 6.05 to 7.00 and more than 6.00, respectively. The corresponding values for `O=C(Nc1ccccc1)Nc1ccc(CCNc2ncnc3cc(-c4ccccc4)oc23)cc1` [Compound 176] are 6.05 to 7.00 and more than 6.00. Consider `O=C(Nc1ccccc1)Nc1ccc(CCNc2ncnc3oc(-c4ccc(OCCCN5CCC(CO)CC5)cc4)cc23)cc1` [Compound 237], for which the pIC50 in test [1] (setting [3]) was 6.05 to 7.00; in test [2] it was > 6.00 and 6.40 to 7.35. Consider `CN(C)CCOc1ccc(-c2cc3c(NCCc4ccc(NC(=O)Nc5ccccc5)cc4)ncnc3o2)cc1` [Compound 207], for which the pIC50 in test [1] (HCT-116, 96 h, read-out: IC50 (concentration of a test compound which causes 50% of the cell death), HCT-116, 96-h incubation, MTS) is 6.05 to 7.00. Regarding `COC(=O)C(Cc1ccc(NC(=O)Nc2ccccc2)cc1)Nc1ncnc2oc(-c3ccccc3)c(-c3ccccc3)c12` (centres unmarked) [Compound 52], in test [2], the pIC50 is > 6.00 and 6.40 to 7.35.

With `COc1cccc(-c2c(-c3ccccc3)oc3ncnc(NCCc4ccc(NC(=O)Nc5ccccc5)cc4)c23)c1` [Compound 59], the pIC50 in test [2] is 6.40 to 7.35 and > 6.00. On to `O=C(Nc1ccc(CCNc2ncnc3oc(-c4ccccc4)c(-c4ccccc4)c23)cc1)Nc1ccccn1` [Compound 146], for which the pIC50 in test [2] is 6.40 to 7.35 and > 6.00. Regarding `CN1CCN(Cc2ccc(NC(=O)Nc3ccc(CCNc4ncnc5oc(-c6ccccc6)c(-c6ccccc6)c45)cc3)cc2)CC1` [Compound 118], in test [2], the pIC50 is more than 6.00. In turn, `NC(=O)Nc1ccc(CCNc2ncnc3oc(-c4ccccc4)c(-c4ccccc4)c23)cc1` [Compound 7] showed a pIC50 in test [2] of more than 6.00. Regarding `O=C(Nc1ccccc1)Nc1ccc(CCNc2ncnc3oc(-c4ccccc4)c(-c4ccccc4)c23)cc1` [Compound 6, 1-(4-(2-(5,6-diphenylfuro[2,3-d]pyrimidin-4-ylamino)ethyl)phenyl)-3-phenylurea], the pIC50 in test [1] (setting [3]) was 6.05 to 7.00. On to `O=C(Nc1ccc(CCNc2ncnc3oc(-c4ccccc4)c(-c4ccccc4)c23)cc1)c1ccccc1` [Compound 5], for which the pIC50 in test [2] was 6.40 to 7.35 and > 6.00. For the compound `O=C(Nc1ccc(CCNc2ncnc3oc(-c4ccccc4)c(-c4ccccc4)c23)cc1)Nc1cccc(Cl)c1` [Compound 15], the pIC50 in test [2] was 6.40 to 7.35 and > 6.00.

In turn, `O=C(Nc1ccc(CCNc2ncnc3oc(-c4ccccc4)c(-c4ccccc4)c23)cc1)Nc1cnccn1` [Compound 151] had a pIC50 in test [2] of more than 6.00. On the same count and under the same terms, under `O=C(Nc1ccc(CCNc2ncnc3oc(-c4ccccc4)cc23)cc1)Nc1cccnc1` [Compound 231] stands more than 6.00. Take `S=C(Nc1ccccc1)Nc1ccc(CCNc2ncnc3oc(-c4ccccc4)c(-c4ccccc4)c23)cc1` [Compound 13]: in test [2], the pIC50 is 6.40 to 7.35 and > 6.00. The same measure, in the same setting: under `COc1ccc(NC(=O)Nc2ccc(CCNc3ncnc4oc(-c5ccccc5)c(-c5ccccc5)c34)cc2)cc1` [Compound 72] stands more than 6.00; under `Cc1ccc(NC(=O)Nc2ccc(CCNc3ncnc4oc(-c5ccccc5)c(-c5ccccc5)c34)cc2)cc1` [Compound 98], 6.40 to 7.35 and > 6.00; under `CN(C)CCNC(=O)Nc1ccc(CCNc2ncnc3oc(-c4ccccc4)c(Cl)c23)cc1` [Compound 234], more than 6.00. On the same count and under the same terms, under `O=C(Nc1ccc(CCNc2ncnc3oc(-c4ccccc4)c(-c4ccccc4)c23)cc1)Nc1cccc(Br)c1` [Compound 16] stands more than 6.00; under `CC(C)(C)OC(=O)N1CCN(CCCOc2ccc(-c3cc4c(NCCc5ccc(NC(=O)Nc6ccccc6)cc5)ncnc4o3)cc2)CC1` [Compound 242], > 6.00 and 6.40 to 7.35; under `O=C(Nc1ccccc1)Oc1ccc(CCNc2ncnc3oc(-c4ccccc4)c(-c4ccccc4)c23)cc1` [Compound 18], 6.40 to 7.35 and > 6.00. Still for that read-out and setting: with `Cc1cc(NC(=O)Nc2ccc(CCNc3ncnc4oc(-c5ccccc5)c(-c5ccccc5)c34)cc2)no1` [Compound 160] the figure was more than 6.00; with `O=C(Nc1ccc(CCNc2ncnc3oc(-c4ccccc4)c(-c4ccccc4)c23)cc1)NN1CCCCC1` [Compound 45], > 6.00 and 6.40 to 7.35. The compound `Nc1ccc(CCOc2ncnc3oc(-c4ccccc4)c(-c4ccccc4)c23)cc1` [Compound 26] gave a pIC50 in test [2] of more than 6.00. Still for that read-out and setting: with `O=C(Nc1ccc(CCNc2ncnc3oc(-c4ccccc4)c(-c4ccccc4)c23)cc1)NC1CCCCC1` [Compound 71] the figure was 6.40 to 7.35 and > 6.00; with `CCCCCCNC(=O)Nc1ccc(CCNc2ncnc3oc(-c4ccccc4)c(-c4ccccc4)c23)cc1` [Compound 69], more than 6.00; with `O=C(Nc1ccc(CCNc2ncnc3oc(-c4ccccc4)c(-c4ccccc4)c23)cc1)N1CCN(CCO)CC1` [Compound 34], more than 6.00. On the same count and under the same terms, with `O=C(Nc1ccc(CCNc2ncnc3oc(-c4ccccc4)c(-c4ccccc4)c23)cc1)Nc1cc(F)cc(F)c1` [Compound 63] the figure was 6.40 to 7.35 and > 6.00. `O=C(NCCCl)Nc1ccc(CCNc2ncnc3oc(-c4ccccc4)c(-c4ccccc4)c23)cc1` [Compound 19]: the pIC50 in test [2] was 6.40 to 7.35 and > 6.00. The same measure, in the same setting: under `N#Cc1cccc(NC(=O)Nc2ccc(CCNc3ncnc4oc(-c5ccccc5)c(-c5ccccc5)c34)cc2)c1` [Compound 30] stands 6.40 to 7.35 and > 6.00; under `Cc1cc(NC(=O)Nc2ccc(CCNc3ncnc4oc(-c5ccccc5)c(-c5ccccc5)c34)cc2)n[nH]1` [Compound 238], more than 6.00; under `O=C(NCc1ccccc1)Nc1ccc(CCNc2ncnc3oc(-c4ccccc4)c(-c4ccccc4)c23)cc1` [Compound 10], 6.40 to 7.35 and > 6.00.

In test [2], `CN1CCN(Cc2ccccc2NC(=O)Nc2ccc(CCNc3ncnc4oc(-c5ccccc5)c(-c5ccccc5)c34)cc2)CC1` [Compound 126] showed a pIC50 of more than 6.00. Same read-out and setting: under `CCCNC(=O)Nc1ccc(CCNc2ncnc3oc(-c4ccccc4)c(-c4ccccc4)c23)cc1` [Compound 67] stands 6.40 to 7.35 and > 6.00; under `Nc1ccc(CNc2ncnc3oc(-c4ccccc4)c(-c4ccccc4)c23)cc1` [Compound 1, N-(4-aminobenzyl)-5,6-diphenylfuro[2,3-d]pyrimidin-4-amine], more than 6.00; under `S=C(Nc1ccc(CCNc2ncnc3oc(-c4ccccc4)c(-c4ccccc4)c23)cc1)Oc1ccccc1` [Compound 74], more than 6.00. Same read-out and setting: under `O=C(Nc1ccc(CCNc2ncnc3oc(-c4ccccc4)c(Cl)c23)cc1)c1ccccc1` [Compound 228] stands more than 6.00; under `O=C(Nc1ccc(CCNc2ncnc3oc(-c4ccccc4)c(-c4ccccc4)c23)cc1)Nc1ccccc1[N+](=O)[O-]` [Compound 97], 6.40 to 7.35 and > 6.00; under `CCCCCNC(=O)Nc1ccc(CCNc2ncnc3oc(-c4ccccc4)c(-c4ccccc4)c23)cc1` [Compound 68], more than 6.00. Still for that read-out and setting: under `COc1ccc(NC(=O)Nc2ccc(CCNc3ncnc4oc(-c5ccccc5)c(-c5ccccc5)c34)cc2)cc1OC` [Compound 95] stands more than 6.00.
